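How tested: cells in 96-well plates exposed to compound for 48 hours at five concentrations. Abbreviation: GI50, concentration required for 50% inhibition of growth.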 Active and inactive are the calls of the source. Rule as the data show it: active = GI50 up to about 1.1 µM and inactive = higher.
What was measured:
Experiment in all cases: NCI anticancer screen, dose series, 48 h
[1] = test system: OVCAR-4
[2] = test system: SNB-78
[3] = test system: SK-MEL-5
[4] = test system: SF-295
[5] = test system: NCI-H226
[6] = test system: A549
[7] = test system: UACC-257
[8] = test system: K562
[9] = test system: SNB-19
[10] = test system: ACHN
[11] = test system: OVCAR-3
[12] = test system: LXFL 529
[13] = test system: SK-MEL-2
[14] = test system: COLO 205
[15] = test system: DMS-114
[16] = test system: HT-29
[17] = test system: U-251
[18] = test system: TK-10
[19] = test system: SW-620
[20] = test system: CCRF-CEM
[21] = test system: 786-0
[22] = test system: RPMI-8226
[23] = test system: SF-268
[24] = test system: HCC 2998
[25] = test system: M19-MEL
[26] = test system: HCT-15
[27] = test system: DMS-273
[28] = test system: HOP-62
[29] = test system: KM12
[30] = test system: HL-60
[31] = test system: UO-31
[32] = test system: SK-OV-3
[33] = test system: Malme-3M
[34] = test system: HOP-92
[35] = test system: SR
[36] = test system: SF-539
[37] = test system: IGROV-1
[38] = test system: SN12C
[39] = test system: UACC-62
[40] = test system: NCI-H522
[41] = test system: RXF 393
[42] = test system: OVCAR-5
[43] = test system: SK-MEL-28
[44] = test system: HCT-116
[45] = test system: MOLT-4
[46] = test system: EKVX
[47] = test system: OVCAR-8
[48] = test system: XF498
[49] = test system: DLD-1
[50] = test system: NCI-H23
[51] = test system: SNB-75
[52] = test system: NCI-H460
[53] = test system: M14
[54] = test system: LOX IMVI
[55] = test system: HOP-18
[56] = test system: KM-20L2
[57] = test system: NCI/ADR-RES
[58] = test system: A498
[59] = test system: MCF7

COc1ccc2c3c(c(C(=O)O)oc13)CCC2
GI50 [1]: > 100 µM (inactive)
GI50 [2]: > 100 µM (inactive)
GI50 [3]: > 100 µM (inactive)
GI50 [4]: > 100 µM (inactive)
GI50 [5]: 18.2 µM (inactive)
GI50 [6]: > 100 µM (inactive)
GI50 [7]: > 100 µM (inactive)
GI50 [8]: > 100 µM (inactive)
GI50 [9]: > 100 µM (inactive)
GI50 [10]: > 100 µM (inactive)
GI50 [11]: > 100 µM (inactive)
GI50 [12]: > 100 µM (inactive)
GI50 [13]: > 100 µM (inactive)
GI50 [14]: > 100 µM (inactive)
GI50 [15]: > 100 µM (inactive)
GI50 [16]: > 100 µM (inactive)
GI50 [17]: > 100 µM (inactive)
GI50 [18]: > 100 µM (inactive)
GI50 [19]: > 100 µM (inactive)
GI50 [20]: > 100 µM (inactive)
GI50 [21]: > 100 µM (inactive)
GI50 [22]: > 100 µM (inactive)
GI50 [23]: > 100 µM (inactive)
GI50 [24]: > 100 µM (inactive)
GI50 [25]: > 100 µM (inactive)
GI50 [26]: > 100 µM
GI50 [27]: > 100 µM (inactive)
GI50 [28]: > 100 µM (inactive)
GI50 [29]: > 100 µM (inactive)
GI50 [30]: > 100 µM (inactive)
GI50 [31]: 40.7 µM (inactive)
GI50 [32]: > 100 µM (inactive)
GI50 [33]: > 100 µM (inactive)
GI50 [34]: > 100 µM (inactive)
GI50 [35]: > 100 µM (inactive)
GI50 [36]: > 100 µM (inactive)
GI50 [37]: > 100 µM (inactive)
GI50 [38]: > 100 µM (inactive)
GI50 [39]: > 100 µM (inactive)
GI50 [40]: > 100 µM (inactive)
GI50 [41]: > 100 µM (inactive)
GI50 [42]: > 100 µM (inactive)
GI50 [43]: > 100 µM (inactive)
GI50 [44]: > 100 µM (inactive)
GI50 [45]: > 100 µM (inactive)
GI50 [46]: > 100 µM (inactive)
GI50 [47]: > 100 µM (inactive)
GI50 [48]: > 100 µM (inactive)
GI50 [49]: > 100 µM (inactive)
GI50 [50]: > 100 µM (inactive)
GI50 [51]: 29.1 µM (inactive)
GI50 [52]: > 100 µM (inactive)
GI50 [53]: > 100 µM (inactive)
GI50 [54]: > 100 µM (inactive)

O=C(/C=C\c1ccc(/C=C/C(=O)Nc2cccc(C3=NCCCN3)c2)cc1)Nc1cccc(C2=NCCCN2)c1
GI50 [1]: > 100 µM (inactive)
GI50 [2]: > 100 µM (inactive)
GI50 [3]: 30.8 µM (inactive)
GI50 [4]: > 100 µM (inactive)
GI50 [6]: > 100 µM (inactive)
GI50 [7]: > 100 µM (inactive)
GI50 [8]: > 100 µM (inactive)
GI50 [9]: > 100 µM (inactive)
GI50 [11]: > 100 µM (inactive)
GI50 [13]: > 62.8 µM (inactive)
GI50 [14]: 4.06 µM (inactive)
GI50 [16]: > 100 µM (inactive)
GI50 [17]: > 100 µM (inactive)
GI50 [19]: 25.4 µM (inactive)
GI50 [55]: > 100 µM (inactive)
GI50 [20]: > 100 µM (inactive)
GI50 [22]: 33.9 µM (inactive)
GI50 [24]: 69.2 µM (inactive)
GI50 [25]: > 100 µM (inactive)
GI50 [26]: > 100 µM
GI50 [27]: > 100 µM (inactive)
GI50 [28]: 65.8 µM (inactive)
GI50 [29]: > 100 µM (inactive)
GI50 [30]: > 100 µM (inactive)
GI50 [56]: > 56.4 µM (inactive)
GI50 [57]: > 100 µM (inactive)
GI50 [31]: > 100 µM (inactive)
GI50 [32]: > 100 µM (inactive)
GI50 [58]: > 74.3 µM (inactive)
GI50 [33]: > 100 µM (inactive)
GI50 [34]: > 100 µM (inactive)
GI50 [59]: 16.3 µM (inactive)
GI50 [36]: > 100 µM (inactive)
GI50 [37]: > 100 µM (inactive)
GI50 [38]: > 100 µM (inactive)
GI50 [40]: 42.8 µM (inactive)
GI50 [41]: > 100 µM (inactive)
GI50 [42]: > 100 µM (inactive)
GI50 [43]: > 100 µM (inactive)
GI50 [44]: > 100 µM (inactive)
GI50 [45]: > 100 µM (inactive)
GI50 [47]: > 100 µM (inactive)
GI50 [48]: < 0.01 µM (active)
GI50 [49]: > 100 µM (inactive)
GI50 [50]: > 100 µM (inactive)
GI50 [51]: > 69.3 µM (inactive)
GI50 [52]: > 100 µM (inactive)
GI50 [54]: > 100 µM (inactive)

— ChEMBL document CHEMBL1201862, “PubChem BioAssay data set” (2004)
